Measurements as given in patent EP1192131B1, “METHOD OF INHIBITING AMYLOID PROTEIN AGGREGATION AND IMAGING AMYLOID DEPOSITS USING ISOINDOLINE DERIVATIVES” (Warner-Lambert Company LLC, priority 1999, dated 2000).
Several values for one entry are separate records, joined by “and”; a condition that tells them apart may be missing. Equal entries are not always repeated. Where two headings read alike, the source gives them in different places.

What was measured:
Aβ (1-40) peptide = molecular target: T1, Aβ (1-40) peptide (Homo sapiens, UniProt P05067); assay: BAPA (Beta-Amyloid Peptide Aggregation, pH 6.0), filtration endpoint assay; type: biochemical
T1 construct: 10 µL 0.5 mg/mL Aβ (1-40) peptide in 20% HFIP
Protocol: BAPA (Beta-Amyloid Peptide Aggregation
This assay is used to provide a measure of inhibition by a compound against the aggregation behavior of the beta amyloid peptide.
The purpose of this assay is to provide a higher volume method of assaying the amount of beta amyloid aggregation using an endpoint assay based on filtration. In this assay, hexafluoroisopropanol (HFIP) is used to break down the initial amyloid peptide to a monomer state and use a concentration of 33 µM which is high enough so that aggregation will occur at pH 6.0 in several hours.
β-Amyloid Peptide Aggregation. pH 6 0 (BAPA)
In a 96-well plate (Costar 3794), we add 25 µL 50 mM Phosphate Buffer, pH 6.0, 10 µL 0.5 mg/mL Aβ (1-40) peptide in 20% HFIP + 0.1 µL/assay radioiodinated ^125I Aβ (1-40) [^125I Aβ(1-40)], and 1 µL of the compound to be tested starting at 50 mM with a concentration of DMSO <1%. Then, we incubate for 2 to 4 hours at room temperature. We stop the reaction with 200 µL of 50 mM phosphate buffer, pH 6.0, and filter it through a 0.2 µm 96-well filter plate (Millipore MAGU N22) We wash the filter plate with 100 µL of the same phosphate buffer. Aggregation was detected on a Microbeta counter after impregnating the filters with Meltilex (1450-441) and is corrected for background

Aβ(1-40) = Aβ(1-40) (Homo sapiens, UniProt P05067); assay: BASST (Beta-Amyloid Self-seeding, ThioflavinT), inhibition of self-seeded amyloid fibril growth; type: biochemical; set-up: 30 µM soluble Aβ (1-40) in deionized water in assay buffer; conditions: 30 µM soluble Aβ (1-40), 37°C, 3 to 5 hours, thioflavin T fluorescence, letter in parentheses = lot of compound (no letter = Lot P)
Protocol: BASST (Beta-Amyloid Self-seeding, ThioflavinT)
An assay for inhibitors of self-seeded amyloid fibril growth
Assay Buffer - 50 mM sodium phosphate, pH 7.5, 100 mM NaCl, 0.02% NaN3, 1 M urea (filter and store at 4°C).
Soluble Aβ (1-40) - 2.2 mg/mL in deionized H2O (store in aliquots at -20°C, keep on ice when thawed) will self-seed after 1 week storage. Typically, the solution should be stored until no lag phase is seen in the assay.
Final assay conditions: 30 µM soluble Aβ (1-40) in deionized water in assay buffer. Compound to be tested is dissolved in DMSO, typically 5-50 mM stock, such that the final concentration of DMSO is <1% v/v in the assay.
Assay: Reaction mixture for 50 assays (on ice) comprised of 1 µL of soluble Aβ (1-40) + 13.5 µL assay buffer per assay. The following are the amounts of the components of the reaction mixture that result in each of the 50 assay wells. 50 µL soluble Aβ (1-40) 675 µL assay buffer
• 1) Prepare the reaction mix above by mixing the components and storing on ice. • 2) Pipet 14.5 µL of reaction mixture into each of 50 wells of a polystyrene U-bottom 96-well microtiter plate (Coming 25881-96) on ice. • 3) Add 1.7 µL of diluted compound to be tested to each well in a column of eight, including solvent control. Serial 3-fold dilutions from 1 mM (100 µM final) in assay buffer -urea = 7 dilutions + zero. Each 96-well plate can therefore accommodate 11 samples + 1 Congo Red control (0.039-5 µM final in 2-fold steps). • 4) Seal the plate with aluminum film and incubate for 10 minutes on ice. • 5) Raise the temperature to 37°C and incubate for 3 to 5 hours (depends on the lot of the peptide). • 6) Remove the aluminum film and add 250 µL/well of 5 µM thioflavin T (ThT) [T-3516, Sigma-Aldrich] in 50 mM glycine-NaOH, pH 8.5. Read fluorescence on a plate reader (ex = 440 nm/20 nm; em = 485 nm/20 nm) within 5 minutes.

[1] = Aβ (1-40) 33 µM, pH 6.0, 2 to 4 hours at room temperature; letter in parentheses = lot of compound (no letter = Lot P); read-out: BAPA IC50
[2] = read-out: BASST IC50 (converted)
[3] = read-out: BAPA IC50; Aβ (1-40) 33 µM, pH 6.0, 2 to 4 hours at room temperature; letter in parentheses = lot of compound (no letter = Lot P)

Aβ(1-40), sequence (P05067 672-711): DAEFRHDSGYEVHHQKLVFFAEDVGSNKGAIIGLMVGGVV
T1 sequence (P05067 672-711): as above

Compound	IC50 (Aβ (1-40) peptide; [1])	IC50 (Aβ(1-40); [2])	IC50 (Aβ (1-40) peptide; [3])	IC50 (Aβ(1-40); read-out: BASST IC50)
2-[2-(3,4-Dimethylphenyl)-2,3-dihydro-1H-isoindol-5-ylamino]benzoic acid [Example 9]	13 µM	1.5 µM		
2-[2-(3-chlorophenyl)-2,3-dihydro-1H-isoindol-5-ylamino]benzoic acid [Example 7]	28 µM	1.1 µM		
2-[2-(4-chlorophenyl)-2,3-dihydro-1H-isoindol-5-ylamino]benzoic acid [Example 8]	19 µM	1 µM		
COc1cc(Nc2ccc3c(c2)CN(c2ccc(Cl)c(Cl)c2)C3)c(C(=O)O)cc1[N+](=O)[O-] [Example 6, 2-[2-(3,4-Dichlorophenyl)-2,3-dihydro-1H-isoindol-5-ylamino]-4-methoxy-5-nitro-benzoic acid]	14 µM	1 µM and 1.5 µM		
O=C(O)c1ccccc1Nc1ccc2c(c1)CN(c1ccc(Cl)c(C(F)(F)F)c1)C2 [Example 10, 2-[2-(4-Chloro-3-trifluoromethylphenyl)-2,3-dihydro-1H-isoindol-5-ylamino]benzoic acid]			16 µM	3 µM
Cc1ccc(N2Cc3ccc(Nc4ccc([N+](=O)[O-])cc4C(=O)O)cc3C2)cc1C [Example 12, 2-[2-(3,4-Dimethyl-phenyl)-2,3-dihydro-1H-isoindol-5-ylamino]-5-nitro-benzoic acid]	5 µM	1.1 µM		
O=C(O)c1cc([N+](=O)[O-])ccc1Nc1ccc2c(c1)CN(c1ccc(Cl)cc1)C2 [Example 15, 2-[2-(4-Chloro-phenyl)-2,3-dihydro-1H-isoindol-5-ylamino]-5-nitro-benzoic acid]	> 100 µM	0.6 µM		
Clc1ccc(N2Cc3ccc(Nc4ccccc4-c4nnn[nH]4)cc3C2)cc1Cl [Example 16, [2-(3,4-Dichloro-phenyl)-2,3-dihydro-1H-isoindol-5-yl]-[2-(1H-tetrazol-5-yl)-phenyl]-amine]	86 µM	1.8 µM		
O=C(O)c1cc([N+](=O)[O-])ccc1Nc1ccc2c(c1)CN(c1ccc(Cl)c(C(F)(F)F)c1)C2 [Example 19, 2-[2-(4-Chloro-3-trifluoromethyl-phenyl)-2,3-dihydro-1H-isoindol-5-ylamino]-5-nitro-benzoic acid]			> 10 µM	1 µM
COc1cc(N2Cc3ccc(Nc4ccccc4C#N)cc3C2)cc(OC)c1OC [Example 25, 2-[2-(3,4,5-Trimethoxy-phenyl)-2,3-dihydro-1H-isoindol-5-ylamino]-benzonitrile]	25 µM	15 µM		

The next lines start with results.

IC50 (Aβ (1-40) peptide; [1])	IC50 (Aβ(1-40); [2])	Compound	IC50 (Aβ (1-40) peptide; [3])	IC50 (Aβ(1-40); read-out: BASST IC50)
101 µM and > 100 µM and 93 µM	2 µM	O=C(O)c1ccccc1Nc1ccc2c(c1)CN(c1ccc(Cl)c(Cl)c1)C2 [Example 4, 2-[2-(3,4-Dichlorophenyl)-2,3-dihydro-1H-isoindol-5-ylamino]benzoic acid]		
40 µM	1.5 µM	Nc1ccc(Nc2ccc3c(c2)CN(c2ccc(Cl)c(Cl)c2)C3)c(C(=O)O)c1 [Example 17, 5-Amino-2-[2-(3,4-dichloro-phenyl)-2,3-dihydro-1H-isoindol-5-ylamino]-benzoic acid]		
97 µM	0.9 µM and 1 µM and 0.6 µM	O=C(O)c1cc([N+](=O)[O-])ccc1Nc1ccc2c(c1)CN(c1ccccc1)C2 [Example 18, 5-Nitro-2-(2-phenyl-2,3-dihydro-1H-isoindol-5-ylamino)-benzoic acid]		
> 60 µM	2 µM	O=C(O)c1cc([N+](=O)[O-])ccc1Nc1ccc2c(c1)CN(c1cccc(F)c1)C2 [Example 20, 2-[2-(3-Fluoro-phenyl)-2,3-dihydro-1H-isoindol-5-ylamino]-5-nitro-benzoic acid]		
> 60 µM	0.7 µM	COc1cccc(N2Cc3ccc(Nc4ccc([N+](=O)[O-])cc4C(=O)O)cc3C2)c1 [Example 21, 2-[2-(3-Methoxy-phenyl)-2,3-dihydro-1H-isoindol-5-ylamino]-5-nitro-benzoic acid]		
> 60 µM	6 µM and 2 µM	O=C(O)c1ccccc1Nc1ccc2c(c1)CN(c1cccc(F)c1)C2 [Example 22, 2-[2-(3-Fluoro-phenyl)-2,3-dihydro-1H-isoindol-5-ylamino]-benzoic acid]		
62 µM	3 µM and 2 µM (2×)	O=C(O)c1cc(F)ccc1Nc1ccc2c(c1)CN(c1ccc(Cl)c(Cl)c1)C2 [Example 23, 2-[2-(3,4-Dichloro-phenyl)-2,3-dihydro-1H-isoindol-5-ylamino]-5-fluoro-benzoic acid]		
> 60 µM	10 µM	COc1cccc(N2Cc3ccc(Nc4ccccc4C(=O)O)cc3C2)c1 [Example 26, 2-[2-(3-Methoxy-phenyl)-2,3-dihydro-1H-isoindol-5-ylamino]-benzoic acid]		
